Results reported in patent publication US20260297542A1, “HERBICIDE RESISTANT PLANTS” (SYNGENTA CROP PROTECTION AG, priority 2023, published 2026).
Positions count from the first letter of the chain named.

Tests used:
Assay in all cases: E. coli hemG growth inhibition by herbicide, AtPPO1 variant
Format in all cases: cell-based
Conditions in all cases: read-out: percentage growth inhibition
AtPPO1 F214Y = biological target: T1, AtPPO1 F214Y (Arabidopsis thaliana, UniProt P55826, F214Y)
T1 construct: expressed in transfected cells; host or cells: E. coli BL21(DE3) hemG (hemG replaced by CmR), pET24a plasmid
T1 sequence (P55826 35-537 F214Y): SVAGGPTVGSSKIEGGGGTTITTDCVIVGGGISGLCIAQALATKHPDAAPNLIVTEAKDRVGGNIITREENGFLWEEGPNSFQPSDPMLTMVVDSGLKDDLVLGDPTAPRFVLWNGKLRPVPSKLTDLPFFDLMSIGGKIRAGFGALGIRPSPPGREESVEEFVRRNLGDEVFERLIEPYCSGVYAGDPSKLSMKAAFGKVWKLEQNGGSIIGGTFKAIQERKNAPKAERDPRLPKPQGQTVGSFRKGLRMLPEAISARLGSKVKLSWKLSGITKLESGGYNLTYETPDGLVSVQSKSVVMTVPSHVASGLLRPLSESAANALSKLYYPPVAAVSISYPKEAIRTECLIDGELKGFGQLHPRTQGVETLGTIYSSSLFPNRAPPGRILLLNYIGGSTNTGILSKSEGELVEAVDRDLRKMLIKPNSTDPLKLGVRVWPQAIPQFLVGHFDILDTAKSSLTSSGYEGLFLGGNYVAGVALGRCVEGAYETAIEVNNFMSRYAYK
Outline: (§1)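 Variant plasmids were transformed into hemG-null BL21(DE3) and precultured 24 h with hematin. Washed cells were diluted 1:100 into Terrific broth containing 0.1 mM IPTG and herbicide (6.25 ppm 0 or E; 0.78 ppm B) or DMSO. After 24 h at 37° C, OD600 gave percent inhibition.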

AtPPO1 L479N = biological target: T2, AtPPO1 L479N (Arabidopsis thaliana, UniProt P55826, L479N)
T2 construct: expressed in transfected cells; host or cells: E. coli BL21(DE3) hemG, pET24a plasmid
T2 sequence (P55826 35-537 L479N): T1 sequence (P55826 35-537 F214Y) with Y180F, L445N
Outline: as §1

AtPPO1 V511N = biological target: T3, AtPPO1 V511N (Arabidopsis thaliana, UniProt P55826, V511N)
T3 construct: expressed in transfected cells; host or cells: E. coli BL21(DE3) hemG, pET24a plasmid
T3 sequence (P55826 35-537 V511N): T1 sequence (P55826 35-537 F214Y) with Y180F, V477N
Outline: as §1

AtPPO1 Y361Q = biological target: T4, AtPPO1 Y361Q (Arabidopsis thaliana, UniProt P55826, Y361Q)
T4 construct: expressed in transfected cells; host or cells: E. coli BL21(DE3) hemG (pET24a, T7 promoter)
T4 sequence (P55826 35-537 Y361Q): T1 sequence (P55826 35-537 F214Y) with Y180F, Y327Q
Outline: as §1

CCOC(=O)[C@]1(C)CC(c2cc(-n3c(=O)n(C)c(=S)n(C)c3=O)c(F)cc2Cl)=NO1 [Herbicide D, ethyl (5S)-3-[2-chloro-5-(3,5-dimethyl-2,6-dioxo-4-thioxo-1,3,5-triazinan-1-yl)-4-fluoro-phenyl]-5-methyl-4H-isoxazole-5-carboxylate]
inhibition at 6.25 ppm (AtPPO1 F214Y): 34%
inhibition at 6.25 ppm (AtPPO1 L479N): 3%
inhibition at 6.25 ppm (AtPPO1 V511N): 22%
inhibition at 6.25 ppm (AtPPO1 Y361Q): 32%

C#CCN1C(=O)C(F)(F)Oc2cc(F)c(-n3c(=O)n(C)c(=S)n(C)c3=O)cc21 [Herbicide B, trifludimoxazin]
inhibition at 0.78 ppm (AtPPO1 F214Y): 26%
inhibition at 0.78 ppm (AtPPO1 L479N): 23%
inhibition at 0.78 ppm (AtPPO1 V511N): 20%
inhibition at 0.78 ppm (AtPPO1 Y361Q): 19%

CC(C)N(C)S(=O)(=O)NC(=O)c1cc(-n2c(=O)cc(C(F)(F)F)n(C)c2=O)c(F)cc1Cl [Herbicide E, saflufenacil]
inhibition at 6.25 ppm (AtPPO1 F214Y): 63%
inhibition at 6.25 ppm (AtPPO1 L479N): 31%
inhibition at 6.25 ppm (AtPPO1 V511N): 48%
inhibition at 6.25 ppm (AtPPO1 Y361Q): 0%
